Key:
Type in all cases: functional
[1] = Growth inhibition of human OVCAR5 cells assessed as cell growth at 10^-4 M after 48 hrs by sulforhodamine B assay; details: OVCAR-5, 48 h, read-out: Activity
CCRF-CEM = test: Growth inhibition of human CCRF-CEM cells assessed as cell growth at 10^-7 M after 48 hrs by sulforhodamine B assay; details: read-out: Activity
SK-OV-3 [2] = test: Growth inhibition of human SKOV3 cells assessed as cell growth at 10^-7 M after 48 hrs by sulforhodamine B assay; details: SK-OV-3, 48 h, read-out: Activity
ACHN [3] = test: Growth inhibition of human ACHN cells assessed as cell growth at 10^-6 M after 48 hrs by sulforhodamine B assay; details: read-out: Activity
[4] = Growth inhibition of human UACC62 cells assessed as cell growth at 10^-7 M after 48 hrs by sulforhodamine B assay; details: UACC-62, 48 h, read-out: Activity
SK-MEL-28 [5] = test: Growth inhibition of human SK-MEL-28 cells assessed as cell growth at 10^-4 M after 48 hrs by sulforhodamine B assay; details: SK-MEL-28, 48 h, read-out: Activity
[6] = Growth inhibition of human SF539 cells assessed as cell growth at 10^-4 M after 48 hrs by sulforhodamine B assay; details: SF-539, 48 h, read-out: Activity
M14 = test: Growth inhibition of human M14 cells assessed as cell growth at 10^-6 M after 48 hrs by sulforhodamine B assay; details: M14, 48 h, read-out: Activity
SK-OV-3 [7] = test: Growth inhibition of human SKOV3 cells assessed as cell growth at 10^-4 M after 48 hrs by sulforhodamine B assay; details: SK-OV-3, 48 h, read-out: Activity
COLO 205 = test: Induction of apoptosis in human COLO205 cells assessed as viable cells level at 10 uM after 24 hrs by Annexin V/propidium iodide staining-based fluorescence microscopy
[8] = Growth inhibition of human BT549 cells assessed as cell growth at 10^-7 M after 48 hrs by sulforhodamine B assay; details: BT-549, 48 h, read-out: Activity
K562 = test: Growth inhibition of human K562 cells assessed as cell growth at 10^-6 M after 48 hrs by sulforhodamine B assay; details: K562, 48 h, read-out: Activity
SF-268 = test: Growth inhibition of human SF268 cells assessed as cell growth at 10^-8 M after 48 hrs by sulforhodamine B assay; details: SF-268, 48 h; for growth at 0.01 µM: read-out: Activity; for TGI: read-out: pTGI (converted)
[9] = Growth inhibition of human OVCAR5 cells after 48 hrs by sulforhodamine B assay; details: OVCAR-5, 48 h; for CC50: read-out: LC50 (the source's name)
MDA-MB-468 [10] = test: Growth inhibition of human MDA-MB-468 cells assessed as cell growth at 10^-6 M after 48 hrs by sulforhodamine B assay; details: MDA-MB-468, 48 h, read-out: Activity
HCT-116 = test: Growth inhibition of human HCT116 cells assessed as cell growth at 10^-8 M after 48 hrs by sulforhodamine B assay; details: HCT-116, 48 h; for growth at 0.01 µM: read-out: Activity; for TGI: read-out: pTGI (converted)
[11] = Growth inhibition of human OVCAR4 cells assessed as cell growth at 10^-6 M after 48 hrs by sulforhodamine B assay; details: OVCAR-4, 48 h, read-out: Activity
NCI-H23 [12] = test: Growth inhibition of human NCI-H23 cells after 48 hrs by sulforhodamine B assay; details: NCI-H23, 48 h; for CC50: read-out: LC50 (the source's name)
[13] = Growth inhibition of human OVCAR4 cells assessed as cell growth at 10^-7 M after 48 hrs by sulforhodamine B assay; details: OVCAR-4, 48 h, read-out: Activity
SK-MEL-2 = test: Growth inhibition of human SK-MEL-2 cells assessed as cell growth at 10^-6 M after 48 hrs by sulforhodamine B assay; details: SK-MEL-2, 48 h, read-out: Activity
[14] = Growth inhibition of human NCI-ADR-RES cells assessed as cell growth at 10^-7 M after 48 hrs by sulforhodamine B assay; details: read-out: Activity
[15] = Growth inhibition of human OVCAR3 cells after 48 hrs by sulforhodamine B assay; details: OVCAR-3, 48 h; for CC50: read-out: LC50 (the source's name)
NCI-H23 [16] = test: Growth inhibition of human NCI-H23 cells assessed as cell growth at 10^-8 M after 48 hrs by sulforhodamine B assay; details: NCI-H23, 48 h; for growth at 0.01 µM: read-out: Activity; for TGI: read-out: pTGI (converted)
SK-MEL-28 [17] = test: Growth inhibition of human SK-MEL-28 cells assessed as cell growth at 10^-8 M after 48 hrs by sulforhodamine B assay; details: SK-MEL-28, 48 h; for growth at 0.01 µM: read-out: Activity; for CC50: read-out: pLC50 (the source's name) (converted); for TGI: read-out: pTGI (converted)
KM12 = test: Growth inhibition of human KM12 cells assessed as cell growth at 10^-7 M after 48 hrs by sulforhodamine B assay; details: KM12, 48 h, read-out: Activity
SR = test: Growth inhibition of human SR cells assessed as cell growth at 10^-6 M after 48 hrs by sulforhodamine B assay; details: read-out: Activity
[18] = Growth inhibition of human LOXIMVI cells after 48 hrs by sulforhodamine B assay; details: LOX IMVI
ACHN [19] = test: Growth inhibition of human ACHN cells assessed as cell growth at 10^-7 M after 48 hrs by sulforhodamine B assay; details: read-out: Activity
SW-620 = test: Growth inhibition of human SW620 cells assessed as cell growth at 10^-8 M after 48 hrs by sulforhodamine B assay; details: SW-620, 48 h; for growth at 0.01 µM: read-out: Activity; for TGI: read-out: pTGI (converted)
MDA-MB-468 [20] = test: Growth inhibition of human MDA-MB-468 cells after 48 hrs by sulforhodamine B assay; details: MDA-MB-468, 48 h; for CC50: read-out: LC50 (the source's name)
[21] = Growth inhibition of human MOLT4 cells after 48 hrs by sulforhodamine B assay; details: MOLT-4, 48 h; for CC50: read-out: LC50 (the source's name)
MCF7 = test: Growth inhibition of human MCF7 cells after 48 hrs by sulforhodamine B assay; details: MCF7, 48 h; for CC50: read-out: LC50 (the source's name)
ACHN [22] = test: Growth inhibition of human ACHN cells assessed as cell growth at 10^-4 M after 48 hrs by sulforhodamine B assay; details: read-out: Activity
786-0 = test: Growth inhibition of human 786-0 cells after 48 hrs by sulforhodamine B assay; details: 786-0, 48 h; for CC50: read-out: LC50 (the source's name)

SMILES: O=C1/C(=C/c2ccc(Cl)cc2Cl)CN(S(=O)(=O)c2ccccc2)C/C1=C\c1ccc(Cl)cc1Cl
- growth at 100 µM [1]: -2%
- growth at 0.1 µM (CCRF-CEM): 92%
- growth at 0.1 µM (SK-OV-3 [2]): 102%
- growth at 1 µM (ACHN [3]): 47%
- growth at 0.1 µM [4]: 95%
- growth at 100 µM (SK-MEL-28 [5]): 42%
- growth at 100 µM [6]: -40%
- growth at 1 µM (M14): 93%
- growth at 100 µM (SK-OV-3 [7]): 24%
- Activity (COLO 205): 29%
- growth at 0.1 µM [8]: 110%
- growth at 1 µM (K562): 8%
- GI50 (SF-268): 0.447 µM
- LC50 (SF-268): > 100 µM
- growth at 0.01 µM (SF-268): 99%
- TGI (SF-268): > 100 µM
- GI50 [9]: 2.13 µM
- TGI [9]: 7.43 µM
- CC50 [9]: > 100 µM
- growth at 1 µM (MDA-MB-468 [10]): 55%
- GI50 (HCT-116): 0.2 µM
- LC50 (HCT-116): 0.912 µM
- growth at 0.01 µM (HCT-116): 99%
- TGI (HCT-116): 0.427 µM
- growth at 1 µM [11]: 10%
- GI50 (NCI-H23 [12]): 0.423 µM
- TGI (NCI-H23 [12]): 2.71 µM
- CC50 (NCI-H23 [12]): > 100 µM
- growth at 0.1 µM [13]: 82%
- growth at 1 µM (SK-MEL-2): 98%
- growth at 0.1 µM [14]: 109%
- GI50 [15]: 0.31 µM
- TGI [15]: 0.818 µM
- CC50 [15]: 5.01 µM
- GI50 (NCI-H23 [16]): 0.427 µM
- LC50 (NCI-H23 [16]): > 100 µM
- growth at 0.01 µM (NCI-H23 [16]): 103%
- TGI (NCI-H23 [16]): 2.69 µM
- GI50 (SK-MEL-28 [17]): 4.47 µM
- growth at 0.01 µM (SK-MEL-28 [17]): 97%
- CC50 (SK-MEL-28 [17]): > 100 µM
- TGI (SK-MEL-28 [17]): > 100 µM
- growth at 0.1 µM (KM12): 105%
- growth at 1 µM (SR): -5%
- GI50 [18]: 0.203 µM
- TGI [18]: 0.508 µM
- growth at 0.1 µM (ACHN [19]): 96%
- GI50 (SW-620): 0.316 µM
- LC50 (SW-620): > 100 µM
- growth at 0.01 µM (SW-620): 97%
- TGI (SW-620): 2.82 µM
- GI50 (MDA-MB-468 [20]): 1.13 µM
- TGI (MDA-MB-468 [20]): 3.89 µM
- CC50 (MDA-MB-468 [20]): > 100 µM
- GI50 [21]: 0.594 µM
- TGI [21]: 9.05 µM
- CC50 [21]: > 100 µM
- GI50 (MCF7): 0.305 µM
- TGI (MCF7): 100 µM
- CC50 (MCF7): > 100 µM
- growth at 100 µM (ACHN [22]): -17%
- GI50 (786-0): 0.241 µM
- TGI (786-0): 0.544 µM
- CC50 (786-0): 1.71 µM

SMILES: Cc1ccc(S(=O)(=O)N2C/C(=C\c3cc(F)cc(F)c3)C(=O)/C(=C/c3cc(F)cc(F)c3)C2)cc1
- growth at 100 µM [1]: -90%
- growth at 0.1 µM (CCRF-CEM): 44%
- growth at 0.1 µM (SK-OV-3 [2]): 106%
- growth at 1 µM (ACHN [3]): -26%
- growth at 0.1 µM [4]: 93%
- growth at 100 µM (SK-MEL-28 [5]): -98%
- growth at 100 µM [6]: -94%
- growth at 1 µM (M14): 12%
- growth at 100 µM (SK-OV-3 [7]): -68%
- Activity (COLO 205): 24%
- growth at 0.1 µM [8]: 111%
- growth at 1 µM (K562): 3%
- GI50 (SF-268): 0.427 µM
- LC50 (SF-268): 14.5 µM
- growth at 0.01 µM (SF-268): 98%
- TGI (SF-268): 2.14 µM
- GI50 [9]: 1.02 µM
- TGI [9]: 2.75 µM
- CC50 [9]: 7.4 µM
- growth at 1 µM (MDA-MB-468 [10]): 22%
- GI50 (HCT-116): 0.209 µM
- LC50 (HCT-116): 1.95 µM
- growth at 0.01 µM (HCT-116): 107%
- TGI (HCT-116): 0.537 µM
- growth at 1 µM [11]: 26%
- GI50 (NCI-H23 [12]): 1.75 µM
- TGI (NCI-H23 [12]): 4.99 µM
- CC50 (NCI-H23 [12]): 26.8 µM
- growth at 0.1 µM [13]: 93%
- growth at 1 µM (SK-MEL-2): 89%
- growth at 0.1 µM [14]: 106%
- GI50 [15]: 0.441 µM
- TGI [15]: 1.44 µM
- CC50 [15]: 4.56 µM
- GI50 (NCI-H23 [16]): 1.74 µM
- LC50 (NCI-H23 [16]): 26.9 µM
- growth at 0.01 µM (NCI-H23 [16]): 98%
- TGI (NCI-H23 [16]): 5.01 µM
- GI50 (SK-MEL-28 [17]): 0.468 µM
- growth at 0.01 µM (SK-MEL-28 [17]): 100%
- CC50 (SK-MEL-28 [17]): 4.79 µM
- TGI (SK-MEL-28 [17]): 1.78 µM
- growth at 0.1 µM (KM12): 103%
- growth at 1 µM (SR): -20%
- GI50 [18]: 0.175 µM
- TGI [18]: 0.339 µM
- CC50 ([18]; read-out: LC50 (the source's name)): 0.656 µM
- growth at 0.1 µM (ACHN [19]): 99%
- GI50 (SW-620): 0.0724 µM
- LC50 (SW-620): 1.45 µM
- growth at 0.01 µM (SW-620): 99%
- TGI (SW-620): 0.302 µM
- GI50 (MDA-MB-468 [20]): 0.349 µM
- TGI (MDA-MB-468 [20]): 1.71 µM
- CC50 (MDA-MB-468 [20]): 5.77 µM
- GI50 [21]: 0.299 µM
- TGI [21]: 2.11 µM
- CC50 [21]: > 100 µM
- GI50 (MCF7): 0.175 µM
- TGI (MCF7): 1.45 µM
- CC50 (MCF7): 6.88 µM
- growth at 100 µM (ACHN [22]): -94%
- GI50 (786-0): 0.587 µM
- TGI (786-0): 1.91 µM
- CC50 (786-0): 4.95 µM
